Reference: PubChem BioAssay AID248 (DTP/NCI, 2004)
Where “and” joins values, the source holds several entries; their conditions need not be identical. Identical values can stand only once. Toxic doses and inconclusive results are not listed. Rule as the data show it: active = T/C of 150% or more; inactive = T/C below 125%.

Tested on: L1210 leukemia ip in BDF1 mice, survival T/C
Assay: NCI In Vivo Anticancer Drug Screen. Data for tumor model L1210 Leukemia (intraperitoneal) in B6D2F1 (BDF1) mice
Conditions: higher = longer survival
In short: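 Value reflects the ratio of survival in compound-treated mice to survival in vehicle-treated controls, with both groups carrying the same transplanted tumor.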

Measured: T/C

S=c1nc[nH]c2nc[nH]c12
inactive: endpoint: mean survival time, dose: 0.15 mg/kg/injection, schedule: Q01DX001 (ip), vehicle: other 102 % of control | endpoint: mean survival time, dose: 0.15 mg/kg/injection, schedule: Q01DX Z (ip), vehicle: other 98 % of control | endpoint: mean survival time, dose: 0.3 mg/kg/injection, schedule: Q01DX001 (ip), vehicle: other 101 % of control | endpoint: mean survival time, dose: 0.3 mg/kg/injection, schedule: Q01DX Z (ip), vehicle: other 101 % of control | endpoint: mean survival time, dose: 0.6 mg/kg/injection, schedule: Q01DX001 (ip), vehicle: other 93 % of control and 101 % of control | endpoint: mean survival time, dose: 0.6 mg/kg/injection, schedule: Q01DX Z (ip), vehicle: other 96 % of control | endpoint: mean survival time, dose: 0.63 mg/kg/injection, schedule: Q01DX015 (ip), vehicle: alkali diluted with saline 95 % of control | endpoint: mean survival time, dose: 1.1 mg/kg/injection, schedule: Q01DX001 (ip), vehicle: other 104 % of control | endpoint: mean survival time, dose: 1.25 mg/kg/injection, schedule: Q01DX015 (ip), vehicle: alkali diluted with saline 95 % of control | endpoint: mean survival time, dose: 1.3 mg/kg/injection, schedule: Q01DX001 (ip), vehicle: other 101 % of control | endpoint: mean survival time, dose: 1.3 mg/kg/injection, schedule: Q01DX Z (ip), vehicle: other 102 % of control | endpoint: mean survival time, dose: 1.9 mg/kg/injection, schedule: Q01DX009 (ip), vehicle: alkali diluted with saline 107 % of control | endpoint: mean survival time, dose: 2.0 mg/kg/injection, schedule: Q01DX001 (ip), vehicle: carboxymethylcellulose (CMC) 107 % of control | endpoint: mean survival time, dose: 2.2 mg/kg/injection, schedule: Q01DX001 (ip), vehicle: other 104 % of control | endpoint: mean survival time, dose: 2.5 mg/kg/injection, schedule: Q01DX015 (ip), vehicle: alkali diluted with saline 100 % of control | endpoint: mean survival time, dose: 2.5 mg/kg/injection, schedule: Q01DX Z (ip), vehicle: other 107 % of control | endpoint: mean survival time, dose: 3.8 mg/kg/injection, schedule: Q01DX009 (ip), vehicle: alkali diluted with saline 105 % of control | endpoint: mean survival time, dose: 3.8 mg/kg/injection, schedule: Q03DX Z (ip), vehicle: other 108 % of control | endpoint: mean survival time, dose: 4.0 mg/kg/injection, schedule: Q01DX001 (ip), vehicle: carboxymethylcellulose (CMC) 98 % of control | endpoint: mean survival time, dose: 4.4 mg/kg/injection, schedule: Q01DX001 (ip), vehicle: other 102 % of control | endpoint: mean survival time, dose: 5.0 mg/kg/injection, schedule: Q01DX015 (ip), vehicle: alkali diluted with saline 103 % of control | endpoint: mean survival time, dose: 5.0 mg/kg/injection, schedule: Q01DX Z (ip), vehicle: alkali diluted with saline 104 % of control and 110 % of control | endpoint: mean survival time, dose: 7.5 mg/kg/injection, schedule: Q01DX009 (ip), vehicle: alkali diluted with saline 101 % of control | endpoint: mean survival time, dose: 7.5 mg/kg/injection, schedule: Q01DX009 (ip), vehicle: saline 103 % of control | endpoint: mean survival time, dose: 7.5 mg/kg/injection, schedule: Q03DX Z (ip), vehicle: other 111 % of control | endpoint: mean survival time, dose: 8.0 mg/kg/injection, schedule: Q01DX001 (ip), vehicle: carboxymethylcellulose (CMC) 95 % of control | endpoint: mean survival time, dose: 8.0 mg/kg/injection, schedule: Q04DX002 (ip), vehicle: alkali diluted with saline 105 % of control and 106 % of control | endpoint: mean survival time, dose: 10.0 mg/kg/injection, schedule: Q01DX006 (iv), vehicle: other 103 % of control | endpoint: mean survival time, dose: 10.0 mg/kg/injection, schedule: Q01DX009 (oral), vehicle: saline with Tween-80 102 % of control and 107 % of control | endpoint: mean survival time, dose: 10.0 mg/kg/injection, schedule: Q01DX015 (ip), vehicle: alkali diluted with saline 101 % of control | endpoint: mean survival time, dose: 10.0 mg/kg/injection, schedule: Q01DX Z (ip), vehicle: alkali diluted with saline 110 % of control | endpoint: mean survival time, dose: 10.0 mg/kg/injection, schedule: Q01DX Z (sc), vehicle: other 111 % of control | endpoint: mean survival time, dose: 12.0 mg/kg/injection, schedule: Q04DX003 (ip), vehicle: saline 105 % of control | endpoint: mean survival time, dose: 12.5 mg/kg/injection, schedule: Q01DX009 (ip), vehicle: saline 112 % of control | endpoint: mean survival time, dose: 12.5 mg/kg/injection, schedule: Q01DX017 (ip), vehicle: other 104 % of control | endpoint: mean survival time, dose: 12.5 mg/kg/injection, schedule: Q01DX Z (ip), vehicle: other 105 % of control | endpoint: mean survival time, dose: 15.0 mg/kg/injection, schedule: Q01DX009 (ip), vehicle: saline 112 % of control | endpoint: mean survival time, dose: 16.0 mg/kg/injection, schedule: Q01DX001 (ip), vehicle: carboxymethylcellulose (CMC) 101 % of control | endpoint: mean survival time, dose: 16.0 mg/kg/injection, schedule: Q04DX002 (ip), vehicle: alkali diluted with saline 100 % of control and 102 % of control | endpoint: mean survival time, dose: 18.0 mg/kg/injection, schedule: Q01DX015 (ip), vehicle: alkali diluted with saline 104 % of control | endpoint: mean survival time, dose: 20.0 mg/kg/injection, schedule: Q01DX005 (ip), vehicle: alkali diluted with water 108 % of control and 111 % of control | endpoint: mean survival time, dose: 20.0 mg/kg/injection, schedule: Q01DX006 (iv), vehicle: other 108 % of control | endpoint: mean survival time, dose: 20.0 mg/kg/injection, schedule: Q01DX009 (oral), vehicle: saline with Tween-80 98 % of control and 105 % of control | endpoint: mean survival time, dose: 20.0 mg/kg/injection, schedule: Q01DX Z (ip), vehicle: alkali diluted with saline 110 % of control | endpoint: mean survival time, dose: 20.0 mg/kg/injection, schedule: Q02DX008 (ip), vehicle: alkali diluted with saline 105 % of control | endpoint: mean survival time, dose: 27.0 mg/kg/injection, schedule: Q01DX015 (ip), vehicle: alkali diluted with saline 106 % of control | endpoint: mean survival time, dose: 30.0 mg/kg/injection, schedule: Q04DX003 (ip), vehicle: saline 109 % of control | endpoint: mean survival time, dose: 32.0 mg/kg/injection, schedule: Q01DX001 (ip), vehicle: carboxymethylcellulose (CMC) 101 % of control | endpoint: mean survival time, dose: 32.0 mg/kg/injection, schedule: Q04DX002 (ip), vehicle: alkali diluted with saline 102 % of control and 103 % of control | endpoint: mean survival time, dose: 35.0 mg/kg/injection, schedule: Q01DX011 (ip), vehicle: alkali diluted with saline 108 % of control | endpoint: mean survival time, dose: 40.0 mg/kg/injection, schedule: Q01DX001 (ip), vehicle: alkali diluted with saline 104 % of control | endpoint: mean survival time, dose: 40.0 mg/kg/injection, schedule: Q01DX006 (iv), vehicle: other 111 % of control | endpoint: mean survival time, dose: 40.0 mg/kg/injection, schedule: Q#A X Z (ip), vehicle: other 94 % of control | endpoint: mean survival time, dose: 45.0 mg/kg/injection, schedule: Q06HX012 (ip), vehicle: alkali diluted with saline 96 % of control | endpoint: mean survival time, dose: 53.0 mg/kg/injection, schedule: Q01DX011 (ip), vehicle: alkali diluted with saline 109 % of control | endpoint: mean survival time, dose: 60.0 mg/kg/injection, schedule: Q01DX001 (ip), vehicle: alkali diluted with saline 110 % of control and 111 % of control | endpoint: mean survival time, dose: 60.0 mg/kg/injection, schedule: Q## X015 (ip), vehicle: other 107 % of control | endpoint: mean survival time, dose: 64.0 mg/kg/injection, schedule: Q01DX001 (ip), vehicle: carboxymethylcellulose (CMC) 98 % of control | endpoint: mean survival time, dose: 80.0 mg/kg/injection, schedule: Q01DX Z (ip), vehicle: carboxymethylcellulose (CMC) 105 % of control | endpoint: mean survival time, dose: 90.0 mg/kg/injection, schedule: Q01DX009 (ip), vehicle: carboxymethylcellulose (CMC) 107 % of control | endpoint: mean survival time, dose: 109.0 mg/kg/injection, schedule: Q01DX001 (ip), vehicle: alkali diluted with saline 110 % of control and 112 % of control | endpoint: mean survival time, dose: 109.0 mg/kg/injection, schedule: Q## X001 (ip), vehicle: alkali diluted with saline 111 % of control | endpoint: mean survival time, dose: 112.0 mg/kg/injection, schedule: Q02DX010 (ip), vehicle: carboxymethylcellulose (CMC) 110 % of control | endpoint: mean survival time, dose: 120.0 mg/kg/injection, schedule: Q01DX009 (ip), vehicle: carboxymethylcellulose (CMC) 103 % of control | endpoint: mean survival time, dose: 128.0 mg/kg/injection, schedule: Q01DX001 (ip), vehicle: carboxymethylcellulose (CMC) 95 % of control | endpoint: mean survival time, dose: 129.2 mg/kg/injection, schedule: Q02DX010 (ip), vehicle: carboxymethylcellulose (CMC) 110 % of control | endpoint: mean survival time, dose: 146.0 mg/kg/injection, schedule: Q01DX001 (ip), vehicle: alkali diluted with saline 108 % of control and 112 % of control | endpoint: mean survival time, dose: 151.0 mg/kg/injection, schedule: Q01DX015 (ip), vehicle: other 105 % of control | endpoint: mean survival time, dose: 160.0 mg/kg/injection, schedule: Q01DX009 (ip), vehicle: saline with Tween-80 104 % of control | endpoint: mean survival time, dose: 160.0 mg/kg/injection, schedule: Q01DX Z (im), vehicle: other 102 % of control | endpoint: mean survival time, dose: 200.0 mg/kg/injection, schedule: Q01DX009 (ip), vehicle: Klucel (hydroxypropylcellulose) (HPC) 103 % of control | endpoint: mean survival time, dose: 200.0 mg/kg/injection, schedule: Q01DX009 (ip), vehicle: alkali diluted with saline 108 % of control | endpoint: mean survival time, dose: 200.0 mg/kg/injection, schedule: Q## X009 (ip), vehicle: alkali diluted with saline 108 % of control | endpoint: mean survival time, dose: 202.0 mg/kg/injection, schedule: Q01DX009 (ip), vehicle: alkali diluted with saline 95 % of control | endpoint: mean survival time, dose: 240.0 mg/kg/injection, schedule: Q01DX009 (ip), vehicle: alkali diluted with saline 96 % of control | endpoint: mean survival time, dose: 240.0 mg/kg/injection, schedule: Q03DX Z (ip), vehicle: other 101 % of control | endpoint: mean survival time, dose: 256.0 mg/kg/injection, schedule: Q01DX001 (ip), vehicle: carboxymethylcellulose (CMC) 98 % of control | endpoint: mean survival time, dose: 303.0 mg/kg/injection, schedule: Q04DX003 (ip), vehicle: saline with Tween-80 101 % of control | endpoint: mean survival time, dose: 400.0 mg/kg/injection, schedule: Q04DX003 (ip), vehicle: saline with Tween-80 101 % of control | endpoint: mean survival time, dose: 510.0 mg/kg/injection, schedule: Q04DX002 (ip), vehicle: alkali diluted with saline 96 % of control and 104 % of control | endpoint: mean survival time, dose: 1020.0 mg/kg/injection, schedule: Q07DX Z (ip), vehicle: other 93 % of control | endpoint: mean survival time, dose: 2675.0 micrograms/kg/injection, schedule: Q01DX Z (ip), vehicle: carboxymethylcellulose (CMC) 108 % of control | endpoint: median survival time, dose: 6.25 mg/kg/injection, schedule: Q01DX009 (ip), vehicle: other 105 % of control | endpoint: median survival time, dose: 25.0 mg/kg/injection, schedule: Q01DX009 (ip), vehicle: other 111 % of control | endpoint: median survival time, dose: 100.0 mg/kg/injection, schedule: Q01DX009 (ip), vehicle: other 111 % of control | endpoint: median survival time, dose: 160.0 mg/kg/injection, schedule: Q01DX009 (ip), vehicle: saline 100 % of control
